Experimental data reported in patent publication US5556744A, “Methods and compositions for diagnosing and treating certain HIV infected patients” (The Trustees of the University of Pennsylvania, priority 1994, dated 1996).

Tested on: maternal sera (antibodies)
Assay: ELISA peptide-binding of maternal sera (Example 6)
Set-up: species or system human
Settings: for Number of Non-Transmitters which bound to peptide / Percent of Non-Transmitters which bound to peptide: N = 12; for Number of Transmitters which bound to peptide / Percent of Transmitters which bound to peptide: N = 4; for Correlation of peptide binding with non-transmitters (in words) / Fold binding, non-transmitters vs transmitters: Example 6
Text: A total of 86 maternal sera samples obtained from patients of the Hospital of the University of Pennsylvania during the third trimester of pregnancy were used in this study 58 (67%) were non-transmitters and 28 (33%) were transmitters. This is approximately consistent with the national average (i.e. a rate of transmission between 25-30%). Transmission status was based upon serological or molecular diagnosis of children (at an age of greater than 15 months) born to these mothers. Because of the constraints on the volume of serum available for many of these samples, not all sera were analyzed with all the peptides. However, each sera sample was run with at least 40 peptides.
These peptides are of an average length of 16 amino acids and covered the entire external as well as the transmembrane glycoprotein of HIV-1. Peptide binding was analyzed by ELISA essentially as described in Example 3.
The results of one study, using some of the peptides identified above among others, is provided in Table 12, which illustrates the number and percent of non-transmitters which bound to the tested peptide. The percentage designation refers to the percentage of sera samples which bound to a particular peptide. A value of greater than 0% means that at least one of the samples bound to the particular peptides.

A6939: gp120 peptide, amino acids 210-227, SEQ ID NO:108 (FEPIPIHYCAPAGFAILK) [Peptide A6939]
Number of Non-Transmitters which bound to peptide: 0
Percent of Non-Transmitters which bound to peptide: 0%
Number of Transmitters which bound to peptide: 0
Percent of Transmitters which bound to peptide: 0%

A824: gp41 peptide, amino acids 824-831, HIV strain IIIB, SEQ ID NO: 175 (EGTDRVIE) [Peptide A824]
Number of Non-Transmitters which bound to peptide: 0
Percent of Non-Transmitters which bound to peptide: 0%
Number of Transmitters which bound to peptide: 0
Percent of Transmitters which bound to peptide: 0%

KQIINMWQEVGKAMYA/CTRPNNNTRKSIRIQRGPG (KQIINMWQEVGKAMYACTRPNNNTRKSIRIQRGPG) [1/SP10IIIB]
Correlation of peptide binding with non-transmitters (in words): selectively correlate with non-transmitters
Fold binding, non-transmitters vs transmitters: at least two fold greater
Number of Non-Transmitters which bound to peptide: 8
Percent of Non-Transmitters which bound to peptide: 66.7%
Percent of Non-Transmitters which bound to peptide (listed as 1/SP10 IIIB): greater than 50%
Number of Transmitters which bound to peptide: 1
Percent of Transmitters which bound to peptide: 25%

41-13: gp41 peptide, amino acids 616-632, HIV strain BRU, SEQ ID NO: 153 (NASWSNKSLEQIWNNMT) [Peptide 41-13]
Number of Non-Transmitters which bound to peptide: 0
Percent of Non-Transmitters which bound to peptide: 0%
Number of Transmitters which bound to peptide: 0
Percent of Transmitters which bound to peptide: 0%

41-22: gp41 peptide, amino acids 702-720, HIV strain BH10, SEQ ID NO: 155 [Peptide 41-22]
Number of Non-Transmitters which bound to peptide: 0
Percent of Non-Transmitters which bound to peptide: 0%
Number of Transmitters which bound to peptide: 0
Percent of Transmitters which bound to peptide: 0%

5099: gp41 peptide, amino acids 512-543, HIV strain IIIB, SEQ ID NO: 162 (AYGIGALFLGFLGAAGSTMGAASMTLTVQARC) [Peptide 5099]
Number of Non-Transmitters which bound to peptide: 1
Percent of Non-Transmitters which bound to peptide: 83%
Number of Transmitters which bound to peptide: 0
Percent of Transmitters which bound to peptide: 0%

YNKRKRIHIQRGPGRAFYTTKNII [AIDS-PND]
Correlation of peptide binding with non-transmitters (in words): selectively correlate with non-transmitters
Fold binding, non-transmitters vs transmitters: at least two fold greater
Number of Non-Transmitters which bound to peptide: 7
Percent of Non-Transmitters which bound to peptide: 58.3%
Percent of Non-Transmitters which bound to peptide (listed as AID-PND): greater than 50%
Number of Transmitters which bound to peptide: 1
Percent of Transmitters which bound to peptide: 25%

p41-20: gp41 peptide, amino acids 644-663, HIV strain IIIB, SEQ ID NO: 154 (SLIEESQNQQEKNEQELLEL)
Number of Non-Transmitters which bound to peptide: 2
Percent of Non-Transmitters which bound to peptide: 16.7%
Number of Transmitters which bound to peptide: 0
Percent of Transmitters which bound to peptide: 0%

A6938: gp120 peptide, amino acids 200-217, HIV strain IIIB, SEQ ID NO: 135 (VITQACPKVSFEPIPIHY) [Peptide A6938]
Number of Non-Transmitters which bound to peptide: 0
Percent of Non-Transmitters which bound to peptide: 0%
Number of Transmitters which bound to peptide: 0
Percent of Transmitters which bound to peptide: 0%

A405: gp120 peptide, amino acids 405-423, HIV strain Z3, SEQ ID NO: 130 (TGNITLPCRIKQVVRTWQG) [Peptide A405]
Number of Non-Transmitters which bound to peptide: 1
Percent of Non-Transmitters which bound to peptide: 8.3%
Number of Transmitters which bound to peptide: 0
Percent of Transmitters which bound to peptide: 0%

41-21: gp41 peptide, amino acids 661-683, HIV strain IIIB, SEQ ID NO: 152 (LELDKWASLWNWFNITNWLWYIK) [Peptide 41-21]
Number of Non-Transmitters which bound to peptide: 0
Percent of Non-Transmitters which bound to peptide: 0%
Number of Transmitters which bound to peptide: 0
Percent of Transmitters which bound to peptide: 0%

A581: gp41 peptide, amino acids 576-592, SEQ ID NO:120 (LQARILAVERYLKDQQL) [Peptide A581]
Number of Non-Transmitters which bound to peptide: 2
Percent of Non-Transmitters which bound to peptide: 16.7%
Number of Transmitters which bound to peptide: 0
Percent of Transmitters which bound to peptide: 0%

124: gp41 peptide, amino acids 646-660, SEQ ID NO:123 (IEESQNQQEKNEQEL) [Peptide 124]
Number of Non-Transmitters which bound to peptide: 0
Percent of Non-Transmitters which bound to peptide: 0%
Number of Transmitters which bound to peptide: 0
Percent of Transmitters which bound to peptide: 0%

DC419 (IIIB): Peptide DC419 (IIIB), Sequence ID No. 191 (TGDIITLPCRIKQIINRWQV)
Number of Non-Transmitters which bound to peptide: 0
Percent of Non-Transmitters which bound to peptide: 0%
Number of Transmitters which bound to peptide: 0
Percent of Transmitters which bound to peptide: 0%

WSK-1: gp120 peptide, amino acids 378-394, SEQ ID NO:115 (GGEFFYCNSTQLFNSTW)
Number of Non-Transmitters which bound to peptide: 0
Percent of Non-Transmitters which bound to peptide: 0%
Number of Transmitters which bound to peptide: 0
Percent of Transmitters which bound to peptide: 0%

CNNKTFNGTGFCTNVSTVQ (CNNKTFNGTGPCTNVSTVQ) [Peptide C19Q]
Number of Non-Transmitters which bound to peptide: 4
Number of Transmitters which bound to peptide: 0
Percent of Transmitters which bound to peptide: 0%

BS-2: gp41 peptide, amino acids 625-634, HIV strain IIIB, SEQ ID NO: 176 (NMTWMEWDRE)
Number of Non-Transmitters which bound to peptide: 0
Percent of Non-Transmitters which bound to peptide: 0%
Number of Transmitters which bound to peptide: 0
Percent of Transmitters which bound to peptide: 0%

A487: gp120 peptide, amino acids 481-503, HIV strain IIIB, SEQ ID NO: 132 (ELYKYKVVKIEPLGVAPTKAKRR) [Peptide A487]
Number of Non-Transmitters which bound to peptide: 1
Percent of Non-Transmitters which bound to peptide: 8.3%
Number of Transmitters which bound to peptide: 0
Percent of Transmitters which bound to peptide: 0%
